Drawing on ChEMBL document CHEMBL1139635, “Synthesis, antitumor evaluation and DNA photocleaving activity of novel methylthiazonaphthalimides with aminoalkyl side chains” (Bioorg Med Chem Lett, 2005), this text covers IC50 and Binding constant for five compounds.

For one assay, the system named is P388. Briefly: Cytotoxic concentration against murine P388 leukemia cell line growth determined by microculture tetrazolium-formazan method. Type of assay: functional, cell-based. To be noted: Mus musculus.
The subject of another assay is A549. Nature of the assay: Cytotoxic concentration against human A549 lung cancer cell line determined by sulforhodamine B dye-staining method. The assay is classed as functional, cell-based. For orientation: In SRB staining, fixed cells bind dye roughly in proportion to their protein.
A further assay has as its system Nucleic Acid. Briefly: Scatchard binding constant towards calf thymus DNA. The assay is classed as functional. The following applies: Bos taurus.

As usually defined, the IC50 is the concentration needed to halve the response being measured. Low readings indicate greater potency, high ones weaker potency.

`CN(C)CCN1C(=O)c2cccc3cc(N)cc(c23)C1=O` [AMONAFIDE]: 200 nM corresponded to half-maximal inhibition with P388 (IC50).

Turning to `Cc1nc2cc3c4c(cccc4c2s1)C(=O)N(CCN(C)C)C3=O`, the IC50 in the assay with A549 is 82.8 nM; with P388, 31 nM. Moreover, in the assay on Nucleic Acid, the Binding constant worked out at 231000 M⁻¹.

Take `Cc1nc2cc3c4c(cccc4c2s1)C(=O)N(CCN1CCNCC1)C3=O`: the IC50 worked out at 20.8 nM in the assay on A549 and 1130 nM in the assay on P388. The same compound yielded a Binding constant with Nucleic Acid of 226000 M⁻¹.

Regarding `CCN(CC)CCN1C(=O)c2cccc3c2c(cc2nc(C)sc23)C1=O`, the IC50 came out at 158 nM with A549 and 640 nM in the assay on P388. The compound further returned a Binding constant in the assay with Nucleic Acid of 166000 M⁻¹.

Turning to `Cc1nc2cc3c4c(cccc4c2s1)C(=O)N(CCCN(C)C)C3=O`, the results for the concentration for half-maximal inhibition (IC50) in the assay with A549 and in the assay with P388 were 1800 nM and 1700 nM, respectively. Moreover, the Binding constant with Nucleic Acid was found to be 666000 M⁻¹.
